Experimental data taken from patent US6271238A, “Acetamide derivatives and protease inhibitors” (Nippon Kayaku Kabushiki Kaisha, priority 1996, dated 2001).
pIC50: −log10 of the molar value. Where a name gives a salt, the structure may show the parent alone. Read-outs that look alike come from different tables or passages of the source.

Columns and labels:
Assay type in all cases: biochemical
rat chymase = molecular target: T1, rat chymase (Rattus norvegicus, UniProt P09650); assay: Inhibitory activity on rat chymase (synthetic substrate); conditions: for IC50: substrate succinyl leucyl leucyl valyl tyrosyl methylcoumarylamide, pH 8.0, 37° C., 15 min, read-out: Rat Chymase (IC50: nM), 50% inhibitory concentration
T1 construct: 50 g rat tongue was finely divided by scissors and a scalpel; from tissue; host or cells: rat tongue
T1 sequence (P09650 21-260): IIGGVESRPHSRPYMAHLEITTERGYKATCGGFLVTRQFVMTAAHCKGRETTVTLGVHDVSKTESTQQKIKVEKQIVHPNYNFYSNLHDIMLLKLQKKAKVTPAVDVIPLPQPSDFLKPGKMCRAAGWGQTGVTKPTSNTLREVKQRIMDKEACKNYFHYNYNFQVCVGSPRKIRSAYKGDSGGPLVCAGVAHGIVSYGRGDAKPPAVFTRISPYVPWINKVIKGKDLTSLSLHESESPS
Method: In the present invention, chymase was purified by the methods described in these literatures, and the present compounds were examined for inhibitory activity on chymase, inhibitory action on activation of mast cells and eosinophils, and pharmacological action in animals. Hereinafter, specific methods are described. […] 50 g rat tongue was finely divided by scissors and a scalpel, suspended in 0.1 M phosphate buffer (pH 8.0), and disrupted by a Polytron homogenizer for 5 minutes to prepare a crude chymase enzyme solution. […] The supernatant was applied to an octyl Sepharose 4B column (40×100 mm) previously equilibrated with 0.1 M phosphate buffer (pH 8.0) containing 2 M sodium chloride and 5% ammonium sulfate, and the protein was eluted with a linear concentration gradient of from 2 M to 0 M sodium chloride. […] (D) Measurement of inhibitory activity on chymase (a) Measurement using the synthetic substrate The synthetic chymase substrate was used for measurement of the inhibitory activity on the rat chymase as a subtrate, and the fluorescence of formed aminomethylcoumarin after reaction was measured by a spectrophotometer. […] The test was conducted several times. Chymase was prepared for each test in the manner described above. The compounds examined were compounds prepared in the above-described examples. […] Succinyl leucyl leucyl valyl tyrosyl methylcoumarylamide (for rat […] angiotensin I (for human and dog chymase)

Human plasmin = molecular target: T2, Human plasmin (Homo sapiens, UniProt P00747); assay: Inhibitory activity on proteases other than chymase: human plasmin; conditions: benzyloxycarbonyl valyl leucyl lyzyl methylcoumarylamide substrate; read-out: 50% Inhibitory concentration toward Human plasmin
T2 construct: human plasmin
T2 sequence (P00747 581-810 limits assumed): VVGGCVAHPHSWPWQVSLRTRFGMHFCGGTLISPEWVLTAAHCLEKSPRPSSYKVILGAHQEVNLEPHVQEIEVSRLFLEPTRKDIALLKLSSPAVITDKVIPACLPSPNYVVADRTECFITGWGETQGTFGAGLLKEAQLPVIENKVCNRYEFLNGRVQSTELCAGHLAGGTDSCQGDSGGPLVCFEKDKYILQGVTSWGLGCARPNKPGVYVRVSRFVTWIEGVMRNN
T2 sequence (P00747 97-580 partner limits assumed): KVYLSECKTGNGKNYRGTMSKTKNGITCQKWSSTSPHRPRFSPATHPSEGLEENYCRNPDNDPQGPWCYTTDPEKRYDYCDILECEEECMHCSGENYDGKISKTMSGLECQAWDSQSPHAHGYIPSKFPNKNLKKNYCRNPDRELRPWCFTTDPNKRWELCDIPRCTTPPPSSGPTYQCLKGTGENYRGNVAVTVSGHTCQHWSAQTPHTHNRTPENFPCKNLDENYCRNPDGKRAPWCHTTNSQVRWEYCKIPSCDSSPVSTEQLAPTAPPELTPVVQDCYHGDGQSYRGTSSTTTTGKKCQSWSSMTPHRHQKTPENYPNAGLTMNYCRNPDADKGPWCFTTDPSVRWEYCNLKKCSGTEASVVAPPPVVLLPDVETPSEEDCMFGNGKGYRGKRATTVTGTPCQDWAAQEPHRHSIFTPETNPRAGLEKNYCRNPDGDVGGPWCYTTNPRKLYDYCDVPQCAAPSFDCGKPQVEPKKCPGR
Method: (§1) (E) Measurement of inhibitory activity on proteases other than chymase
(§2) The inhibitory activity of the present compounds on human elastase, human cathepsin G, human urokinase, human thrombin, human plasmin, and human factor Xa was determined using their corresponding synthetic substrates in the same manner as for chymase. All the above proteases were those commercially available from Boehringer Mannheim or purified by a combination of known methods. The synthetic substrates were those produced by Peptide Renkyusho. The synthetic substrates for the respective proteases are as follows.
Human plasmin Benzyloxycarbonyl valyl leucyl lyzyl
(§3) The test was conducted several times. Chymase was prepared for each test in the manner described above. The compounds examined were compounds prepared in the above-described examples.

Human urokinase = Human urokinase (Homo sapiens, UniProt P00749); assay: Inhibitory activity on proteases other than chymase: human urokinase; conditions: pyridyl glycyl arginyl methylcoumarylamide substrate; read-out: 50% Inhibitory concentration toward Human urokinase
Method: as §2, with “(E) Measurement of inhibitory activity on proteases other than chymase The inhibitory” for “The inhibitory”, “as follows. |Human urokinase Pyridyl glycyl arginyl methylcoumarylamide The test was conducted several times. Chymase was prepared for each test in the manner described above. The compounds examined were compounds prepared in the above-described examples.” for “as follows.”

Human cathepsin G = molecular target: T3, Human cathepsin G (Homo sapiens, UniProt P08311); assay: Inhibitory activity on proteases other than chymase: human cathepsin G; conditions: succinyl alanyl alanyl propyl phenylmethylcoumarylamide substrate; read-out: 50% Inhibitory concentration toward Human cathepsin G
T3 sequence (P08311 21-255): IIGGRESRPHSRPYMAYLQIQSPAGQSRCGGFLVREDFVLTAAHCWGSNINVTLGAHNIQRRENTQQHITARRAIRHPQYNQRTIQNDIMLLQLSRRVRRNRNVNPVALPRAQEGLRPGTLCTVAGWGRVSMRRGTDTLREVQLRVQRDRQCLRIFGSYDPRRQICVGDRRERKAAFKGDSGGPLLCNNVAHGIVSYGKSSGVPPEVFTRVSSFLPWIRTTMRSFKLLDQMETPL
Method: as §1, §2
Human cathepsin G Succinyl alanyl alanyl propyl phenylmethyl-
as §3

Human thrombin = molecular target: T4, Human thrombin (Homo sapiens, UniProt P00734); assay: Inhibitory activity on proteases other than chymase: human thrombin
T4 construct: human thrombin
Method: as §1, §2
Human thrombin Benzyloxycarbonyl asparginyl prolyl arginyl
as §3

Human elastase = molecular target: T5, Human elastase (Homo sapiens, UniProt P08246); assay: Inhibitory activity on proteases other than chymase: human elastase; conditions: succinyl alanyl propyl alanyl methylcoumarylamide substrate; read-out: 50% Inhibitory concentration toward Human elastase
T5 sequence (P08246 30-247 limits assumed): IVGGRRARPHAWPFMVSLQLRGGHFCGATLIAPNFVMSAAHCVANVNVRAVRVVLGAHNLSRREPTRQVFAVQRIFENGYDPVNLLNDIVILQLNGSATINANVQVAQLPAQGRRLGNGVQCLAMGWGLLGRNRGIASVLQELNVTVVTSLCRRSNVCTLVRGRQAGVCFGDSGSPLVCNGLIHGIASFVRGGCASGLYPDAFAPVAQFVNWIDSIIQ
Method: as §1, §2
Human elastase Succinyl alanyl propyl alanyl methylcoumarylamide
as §3

other human proteases = assay: Inhibitory activity on other human proteases (summary)
Method: as §1, §2, §3

SMILES | IC50 (rat chymase) [nM] | pIC50 (Human plasmin) | pIC50 (Human urokinase) | pIC50 (Human cathepsin G) | pIC50 (Human thrombin) | pIC50 (Human elastase) | inhibitory activity on other human proteases, in words (other human proteases) | pIC50 (rat chymase)
CCCCC(=O)C(=O)C(Cc1ccccc1)NC(=O)Cn1c(-c2ccccc2)ncc(N)c1=O (stereo not shown) [Compound 44] | 79 | – | – | – | – | – | – | –
Nc1cnc(-c2ccccc2)n(CC(=O)NC(Cc2ccccc2)C(=O)C(=O)CCCc2ccccc2)c1=O (stereo not shown) [Compound 40] | 46 | < 5.00 | < 5.00 | < 5.00 | < 5.00 | 5.72 | – | –
CC(=O)C(=O)C(Cc1cccc(F)c1)NC(=O)Cn1c(-c2ccccc2)ncc(N)c1=O (stereo not shown) [Compound 52, 2-(5-Amino-6-oxo-2-phenyl-1,6-dihydropyrimidine-1-yl)-N-{1-(3-fluorophenyl)methyl-2,3-dioxo}butylacetamide] | 190 | < 5.00 | < 5.00 | 6.46 | < 5.00 | < 5.00 | – | –
CC(C)(C)OC(=O)Nc1cnc(-c2ccccc2)n(CC(=O)NC(Cc2ccccc2)C(=O)C(=O)CCCOc2ccccn2)c1=O (stereo not shown) [Compound 74, 2-(5-t-Butyloxycarbonylamino-6-oxo-2-phenyl-1,6-dihydropyrimidine-1-yl)-N-{2,3-dioxo-6-(2-pyridyloxy)-1-phenylmethyl}hexylacetamide] | 510 | < 5.00 | < 5.00 | 7.05 | < 5.00 | 5.22 | no inhibitory activity on other human proteases | –
CC(=O)Nc1cnc(-c2ccccc2)n(CC(=O)NC(Cc2ccccc2)C(=O)C(=O)CCCOc2ccccn2)c1=O (stereo not shown) [Compound 80, 2-(5-Acetylamino-6-oxo-2-phenyl-1,6-dihydropyrimidine1-yl)-N-{2,3-dioxo-1-phenylmethyl-6-(-2-pyridyloxy)}hexyl-acetamide] | 52 | < 5.00 | < 5.00 | 7.74 | < 5.00 | 5.68 | no inhibitory activity on other human proteases | –
CCOC(=O)CCCC(=O)C(=O)C(Cc1cccc(F)c1)NC(=O)Cn1c(-c2ccccc2)ncc(N)c1=O (stereo not shown) [Compound 54] | 45 | – | – | – | – | – | no inhibitory activity on other human proteases | –
O=C(Cn1c(-c2ccccc2)ncc(NS(=O)(=O)NCc2ccccc2)c1=O)NC(Cc1ccccc1)C(=O)C(=O)CCCOc1ccccn1 (stereo not shown) [Compound 82, 2-(5-Benzylaminosulfonylamino-6-oxo-2-phenyl-1,6-dihydropyrimidine-1-yl)-N-{2,3-dioxo-1-phenylmethyl-6-(2-pyridyloxy)}hexylacetamide] | – | < 5.00 | < 5.00 | 7.72 | < 5.00 | 5.40 | no inhibitory activity on other human proteases | 7.72
O=CNc1cnc(-c2ccccc2)n(CC(=O)NC(Cc2ccccc2)C(=O)C(=O)CCCOc2ccccn2)c1=O (stereo not shown) [Compound 79, 2-(5-Formylamino-6-oxo-2-phenyl-1,6-dihydropyrimidine-1-yl)-N-{2,3-dioxo-1-phenylmethyl-6-(2-pyridyloxy)}hexylacetamide] | 19 | < 5.00 | < 5.00 | 6.38 | < 5.00 | < 5.00 | no inhibitory activity on other human proteases | –
Nc1cnc(-c2ccccc2)n(CC(=O)NC(Cc2ccccc2)C(=O)C(=O)CCCn2ccccc2=O)c1=O (stereo not shown) [Compound 73, 2-(5-Amino-6-oxo-2-phenyl-1,6-dihydropyrimidine-1-yl)-N-{2,3-dioxo-1-phenylmethyl-6-(2-oxo-1,2-dihydropyridine-1-yl)}hexylacetamide hydrochloride] | 550 | – | – | – | – | – | no inhibitory activity on other human proteases | –
CC(C)(C)OC(=O)Nc1cnc(-c2ccccc2)n(CC(=O)NC(Cc2ccccc2)C(=O)C(=O)CCCn2ccccc2=O)c1=O (stereo not shown) [Compound 72, 2-(5-t-Butyloxycarbonylamino-6-oxo-2-phenyl-1,6-dihydropyrimidine-1-yl)-N-{2,3-dioxo-6-(2-oxo-1,2-dihydropyridine-1-yl)-1-phenylmethyl}hexylacetamide] | 2100 | < 5.00 | < 5.00 | 6.27 | < 5.00 | 5.26 | no inhibitory activity on other human proteases | –
